Assay results: patent US8309593B2, “2-acylaminopropoanol-type glucosylceramide synthase inhibitors” (Genzyme Corporation, priority 2008, dated 2012)

System: GM3
Assay: GM3 Elisa assay
Assay type: cell-based
Conditions: 48 h, Table 1; B16-FO cells, 2 days with compound; read-out: IC50_uM_Mean
Experimental: B16-FO cells from ATCC (American Tissue Culture Collection) were grown in DMEM media (ATCC) with 10% Fetal Bovine Serum (Hyclone) and Pen/Step/Glutamine (Biowhittaker). 4000 cells per well were plated on collagen coated plates (BD) and allowed to attach for 6 hours in an incubator (37 degrees, 5% CO2). After 6 hours the compounds and controls were added to the wells, the plates mixed and returned to the incubator for 2 days. Day of assay the cells were fixed for 20 minutes with 1% formaldehyde and then washed with Tris Buffered Saline (TBS) 3 times, 150 μl of TBS was left in the wells and 50 μl of goat serum (Invitrogen) was added, the plates mixed and incubated for 1 hour at room temperature. The plates were flicked and the cells incubated with the monoclonal Antibody to GM3 (NeuAc) (Cosmo) for 45 minutes as room temperature. The plates were then washed 3 times with TBS, leaving 150 μl of TBS in the wells and Peroxidase AffinPure F (ab′) 2 frag Gt Anti-mouse IgM, μ Chain Specific (Jackson Immuno Research) was added in 50 μl, the plates mixed and incubated for 45 minutes at room temperature. The plates were washed 3 times with TBS, flicked and blotted and 100 μl of Quantablu (Pierce) was added to the wells and incubated for 1 hour then read on a Fluorometer at Ex 325 and Em 420. The data was then analyzed using standard programs.

`COc1ccc(OCCC(=O)N[C@H](CN2CCCC2)[C@H](O)c2ccc3c(c2)OCCO3)cc1` [Compound 61, N-((1R,2R)-1-(2,3-dihydrobenzo[β][1,4]dioxin-6-yl)-1-hydroxy-3-(pyrrolidin-1-yl)propan-2-yl)-3-(4-methoxyphenoxy)propanamide] and `CCc1ccc(OCCC(=O)N[C@H](CN2CCCC2)[C@H](O)c2ccc3c(c2)OCCO3)cc1` [Compound 188, N-((1R,2R)-1-(2,3-dihydrobenzo[b][1,4]dioxin-6-yl)-1-hydroxy-3-(pyrrolidin-1-yl)propan-2-yl)-3-(4-ethylphenoxy)propanamide (2R,3R)-2,3-dihydroxysuccinate] cannot be ordered by IC50: no more than 0.1 µM for the first, 0.1 to 1 µM for the second.

`COc1cccc(CNC(=O)N[C@H](CN2CCCC2)[C@H](O)c2ccc3c(c2)OCCO3)c1` [Compound 80, 1-((1R,2R)-1-(2,3-dihydrobenzo[β][1,4]dioxin-6-yl)-1-hydroxy-3-(pyrrolidin-1-yl)propan-2-yl)-3-(3-methoxybenzyl)urea] and `CCC(=O)c1ccc(OCCC(=O)N[C@H](CN2CCCC2)[C@H](O)c2ccc3c(c2)OCCO3)cc1` [Compound 189, N-((1R,2R)-1-(2,3-dihydrobenzo[b][1,4]dioxin-6-yl)-1-hydroxy-3-(pyrrolidin-1-yl)propan-2-yl)-3-(4-propionylphenoxy)propanamide (2R,3R)-2,3-dihydroxysuccinate] cannot be ordered by IC50: no more than 0.1 µM for the first, 0.1 to 1 µM for the second.

`O=C(CCCc1nc2ccccc2s1)N[C@H](CN1CCCC1)[C@H](O)c1ccc2c(c1)OCCO2` [Compound 101, 4-(benzo[d]thiazol-2-yl)-N-((1R,2R)-1-(2,3-dihydrobenzo[1,4]dioxin-6-yl)-1-hydroxy-3-(pyrrolidin-1-yl)propan-2-yl)butanamide] and `O=C(CCC(=O)c1ccc(C(F)(F)F)cc1)N[C@H](CN1CCCC1)[C@H](O)c1ccc2c(c1)OCCO2` [Compound 176, N-((1R,2R)-1-(2,3-dihydrobenzo[β][1,4]dioxin-6-yl)-1-hydroxy-3-(pyrrolidin-1-yl)propan-2-yl)-4-oxo-4-(4-(trifluoromethyl)phenyl)butanamide (2S,3S)-2,3-dihydroxysuccinate] cannot be ordered by IC50: no more than 0.1 µM for the first, no more than 0.1 µM for the second.

`CC(C)(C)c1ccc(C(=O)CCCCCC(=O)N[C@H](CN2CCCC2)[C@H](O)c2ccc3c(c2)OCCO3)cc1` [Compound 160, 7-(4-tert-butylphenyl)-N((1R,2R)-1-(2,3-dihydrobenzo[β][1,4]dioxin-6-yl)-1-hydroxy-3-(pyrrolidin-1-yl)propan-2-yl)-7-oxoheptanamide] and `CC(C)Oc1ccc(C(=O)CCC(=O)N[C@H](CN2CCCC2)[C@H](O)c2ccc3c(c2)OCCO3)cc1` [Compound 162, N-((1R,2R)-1-(2,3-dihydrobenzo[β][1,4]dioxin-6-yl)-1-hydroxy-3-(pyrrolidin-1-yl)propan-2-yl)-4-(4-isopropoxyphenyl)-4-oxobutanamide] cannot be ordered by IC50: 0.1 to 1 µM for the first, no more than 0.1 µM for the second.

Same assay, conditions: Table 3 (title: IC 50 Values); read-out: IC50_uM_Mean

`CCNC[C@@H](NC(=O)CCCCCC(=O)c1ccc(OC)cc1)C(O)c1ccc2c(c1)OCCO2` (some centres unmarked) [Compound 467] and `COc1ccc(C(=O)CCCCCC(=O)N[C@H](CN2CCC[C@@H]2C)C(O)c2ccc3c(c2)OCCO3)cc1` (some centres unmarked) [Compound 525] cannot be ordered by IC50: 0.1 to 1 µM for the first, no more than 0.1 µM for the second.

Compared with `O=C(Cc1ccc(OC(F)(F)F)cc1)N[C@H](CN1CCCC1)[C@H](O)c1ccc(Cl)s1` [Compound 492], `COc1ccc(OCCC(=O)N[C@H](CN2CCC[C@@H]2C)C(O)c2ccc3c(c2)OCCO3)cc1` (some centres unmarked) [Compound 526] is lower in IC50: 3 to 10 µM for the first, 0.1 to 1 µM for the second.

First: CCCCCCCC(=O)N[C@H](CN1CC[C@@H](F)C1)[C@H](O)c1ccc2c(c1)OCCO2 [Compound 504]
Second: CCCCCCCC(=O)N[C@H](CN1CC[C@H](F)C1)[C@H](O)c1ccc2c(c1)OCCO2 [Compound 510]
The IC50 of the first is lower: 0.1 to 1 µM for the first, 3 to 10 µM for the second.

Compared with `CCCCCCCC(=O)N[C@H](CN1CC[C@@H](O)C1)[C@@H](O)c1ccc2c(c1)OCCO2` [Compound 512], `CCCCCCCC(=O)N[C@H](CN1CC[C@H](O)C1)[C@@H](O)c1ccc2c(c1)OCCO2` [Compound 515] is lower in IC50: 1 to 3 µM for the first, no more than 0.1 µM for the second.

Compared with `CCCCCCCC(=O)N[C@H](CN1CC2CC2C1)[C@@H](O)c1ccc2c(c1)OCCO2` (some centres unmarked) [Compound 517], `CCCCCCCC(=O)N[C@H](CN1CCC[C@@H]1C)C(O)c1ccc2c(c1)OCCO2` (some centres unmarked) [Compound 527] is higher in IC50: 0.1 to 1 µM for the first, 1 to 3 µM for the second.

`COc1ccc(C(=O)CCOCCC(=O)N[C@H](CN2CC[C@@H](O)C2)[C@H](O)c2ccc3c(c2)OCCO3)cc1` [Compound 518] and `COc1ccc(C(=O)CCCCCC(=O)NC(CN2CC[C@@H](F)C2)[C@H](O)c2ccc3c(c2)OCCO3)cc1` (some centres unmarked) [Compound 531] cannot be ordered by IC50: 0.1 to 1 µM for the first, no more than 0.1 µM for the second.

Compared with `COc1ccc(OCCC(=O)N[C@H](CN2CCC[C@H]2C)C(O)c2ccc3c(c2)OCCO3)cc1` (some centres unmarked) [Compound 528], `COC[C@@H]1CCCN1C[C@@H](NC(=O)CCOc1ccc(OC)cc1)C(O)c1ccc2c(c1)OCCO2` (some centres unmarked) [Compound 535] is higher in IC50: 1 to 3 µM for the first, 3 to 10 µM for the second.

`COc1ccc(C(=O)CCCCCC(=O)N[C@H](CN2CCC[C@H]2C)C(O)c2ccc3c(c2)OCCO3)cc1` (some centres unmarked) [Compound 529] and `COC[C@@H]1CCCN1C[C@@H](NC(=O)CCCCCC(=O)c1ccc(OC)cc1)C(O)c1ccc2c(c1)OCCO2` (some centres unmarked) [Compound 533] cannot be ordered by IC50: no more than 0.1 µM for the first, 0.1 to 1 µM for the second.

`CCCCCCCC(=O)N[C@H](CN1CCC[C@H]1C)C(O)c1ccc2c(c1)OCCO2` (some centres unmarked) [Compound 530] and `CCCCCCCC(=O)N[C@H](CN1CCC[C@H]1COC)C(O)c1ccc2c(c1)OCCO2` (some centres unmarked) [Compound 534] fall in the same range of IC50: 3 to 10 µM for the first, 3 to 10 µM for the second.

First: COc1ccc(C(=O)CCCCCC(=O)N[C@H](CN2CC3CC3C2)[C@@H](O)c2ccc3c(c2)OCCO3)cc1 (some centres unmarked) [Compound 537]
Second: COc1ccc(C(=O)CCCCCC(=O)N[C@H](CN2[C@H](C)CC[C@@H]2C)[C@H](O)c2ccc3c(c2)OCCO3)cc1 [Compound 548]
The IC50 of the first is lower: no more than 0.1 µM for the first, 1 to 3 µM for the second.

`COC[C@H]1CCCN1C[C@@H](NC(=O)CCOc1ccc(OC)cc1)[C@@H](O)c1ccc2c(c1)OCCO2` [Compound 538] and `COC[C@H]1CCCN1C[C@@H](NC(=O)CCCCCC(=O)c1ccc(OC)cc1)[C@@H](O)c1ccc2c(c1)OCCO2` [Compound 539] fall in the same range of IC50: 3 to 10 µM for the first, 3 to 10 µM for the second.

`CCCCCCCC(=O)N[C@H](CN1CCC[C@@H]1COC)[C@@H](O)c1ccc2c(c1)OCCO2` [Compound 540] and `CCCCCCCC(=O)N[C@H](CN1CCCC1(C)C)[C@@H](O)c1ccc2c(c1)OCCO2` [Compound 553] fall in the same range of IC50: 3 to 10 µM for the first, 3 to 10 µM for the second.

`CCCCCCCC(=O)N[C@H](CN1[C@H](C)CC[C@@H]1C)[C@H](O)c1ccc2c(c1)OCCO2` [Compound 549] and `COc1ccc(OCCC(=O)N[C@H](CN2[C@H](C)CC[C@@H]2C)[C@H](O)c2ccc3c(c2)OCCO3)cc1` [Compound 550] fall in the same range of IC50: 3 to 10 µM for the first, 3 to 10 µM for the second.

Compared with `COc1ccc(OCCC(=O)N[C@H](CN2CCCC2(C)C)[C@@H](O)c2ccc3c(c2)OCCO3)cc1` [Compound 551], `COc1ccc(C(=O)CCCCCC(=O)N[C@H](CN2CCCC2(C)C)[C@@H](O)c2ccc3c(c2)OCCO3)cc1` [Compound 552] is lower in IC50: 3 to 10 µM for the first, 1 to 3 µM for the second. The second is the more potent here.

First: O=C(CCCCS(=O)(=O)C1CCCCC1)N[C@H](CN1CCCC1)[C@@H](O)c1ccc2c(c1)OCCO2 [Compound 557]
Second: O=C(CCCCCC1CCOCC1)N[C@H](CN1CCCC1)[C@@H](O)c1ccc2c(c1)OCCO2 [Compound 559]
The IC50 of the first is higher: 3 to 10 µM for the first, 0.1 to 1 µM for the second. The second is the more potent here.
